Measurements as given in patent US20170081338A1, “SUBSTITUTED HETEROARYL COMPOUNDS AND METHODS OF USE” (Sunshine Lake Pharma Co., Ltd., priority 2015, published 2017).

Target: T1, JAK2 (h) (Homo sapiens, UniProt O60674)
T1 construct: purchased Millipore UK Ltd (contract assay service)
Experiment: JAK2 (h) kinase assay
Assay type: biochemical
Description: Kinase assays can be performed by measurement of incorporation of γ-^33P ATP into immobilized myelin basic protein (MBP). High binding white 384 well plates (Greiner) are coated with MBP (Sigma #M-1891) by incubation of 60 μL/well of 20 μg/mL MBP in Tris-buffered saline (TBS; 50 mM Tris pH 8.0, 138 mM NaCl, 2.7 mM KCl) for 24 h at 4° C. Plates are washed 3× with 100 μL TBS. Kinase reactions are carried out in a total volume of 34 μL in kinase buffer (according to the need to make, for example, 5 mM Hepes pH 7.6, 15 mM NaCl, 0.01% bovine gamma globulin (Sigma #1-5506), 10 mM MgCl2, 1 mM DTT, 0.02% TritonX-100). Compound dilutions are performed in DMSO and added to assay wells to a final DMSO concentration of 1%. Each data point is measured in duplicate, and at least two duplicate assays are performed for each individual compound determination. […] A mixture of unlabeled ATP and γ-^33P ATP is added to start the reaction (2×10^6 cpm of γ-^33P ATP per well (3000 Ci/mmole) and 10 μM unlabeled ATP, typically. The reactions are carried out for 1 h at room temperature with shaking. Plates are washed 7× with TBS, followed by the addition of 50 µL/well scintillation fluid (Wallac). Plates are read using a Wallac Trilux counter. This is only one format of such assays; various other formats are possible, as known to one skilled in the art. […]

T1 sequence (O60674 whole entry): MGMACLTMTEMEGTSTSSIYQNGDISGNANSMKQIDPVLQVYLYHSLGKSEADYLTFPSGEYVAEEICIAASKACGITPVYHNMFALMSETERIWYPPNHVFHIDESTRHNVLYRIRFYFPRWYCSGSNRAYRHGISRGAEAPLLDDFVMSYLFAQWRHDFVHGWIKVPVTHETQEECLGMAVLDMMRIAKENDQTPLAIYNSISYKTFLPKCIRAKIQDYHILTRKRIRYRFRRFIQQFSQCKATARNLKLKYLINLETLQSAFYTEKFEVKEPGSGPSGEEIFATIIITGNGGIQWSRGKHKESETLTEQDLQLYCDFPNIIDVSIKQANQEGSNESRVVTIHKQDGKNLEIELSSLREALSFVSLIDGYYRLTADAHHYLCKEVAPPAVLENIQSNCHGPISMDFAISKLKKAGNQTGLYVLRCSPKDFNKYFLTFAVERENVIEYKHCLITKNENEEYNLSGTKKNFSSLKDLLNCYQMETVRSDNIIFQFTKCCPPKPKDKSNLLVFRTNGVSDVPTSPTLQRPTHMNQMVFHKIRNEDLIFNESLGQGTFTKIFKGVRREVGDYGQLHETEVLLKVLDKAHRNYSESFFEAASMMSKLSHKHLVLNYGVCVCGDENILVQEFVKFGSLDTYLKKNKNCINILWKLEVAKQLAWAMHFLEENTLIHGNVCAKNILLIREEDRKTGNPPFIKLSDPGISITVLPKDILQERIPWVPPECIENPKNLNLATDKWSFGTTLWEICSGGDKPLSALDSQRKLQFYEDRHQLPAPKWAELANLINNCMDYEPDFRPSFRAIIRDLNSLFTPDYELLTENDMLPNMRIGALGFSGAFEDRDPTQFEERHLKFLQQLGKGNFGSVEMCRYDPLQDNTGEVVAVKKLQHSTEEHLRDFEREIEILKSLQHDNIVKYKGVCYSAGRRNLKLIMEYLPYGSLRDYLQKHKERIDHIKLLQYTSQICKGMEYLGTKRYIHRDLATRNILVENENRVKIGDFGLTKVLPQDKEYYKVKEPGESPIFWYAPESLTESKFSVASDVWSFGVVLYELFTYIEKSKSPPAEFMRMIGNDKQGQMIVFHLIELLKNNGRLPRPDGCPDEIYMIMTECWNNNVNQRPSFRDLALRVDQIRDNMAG

Molecule CC(C)CS(=O)(=O)N[C@H]1COC2C1OC[C@H]2Nc1nc(Nc2cnn(C)c2)ncc1Cl (stereo partly drawn) [Ex. 2, N-((3S,6R)-6-((5-chloro-2-((1-methyl-1H-pyrazol-4-yl)amino)pyrimidin-4-yl)amino)hexahydrofuro[3,2-b]furan-3-yl)-2-methylpropane-1-sulfonamide] has an IC50 of 350 nM.
